# Columns and labels:
# [1] = test system: K. pneumoniae clinical isolates; test: RNA-Seq transcriptional response to antibiotic exposure, GO term enrichment; assay type: cell-based, Klebsiella pneumoniae; details: CLSI breakpoint concentration, 0, 10, 30, 60 minutes
# From the text: (§1) Fisher's combined probability test was used to select only those genes whose expression after antibiotic treatment was statistically distinguishable from its expression at any timepoint in the untreated samples. Gene ontology (GO) terms were assigned using blast2GO (version 1.4.4), with hypergeometric testing for enrichment. For each pathogen-antibiotic pair, the fold-change threshold in DESeq2 used to test statistical significance was increased to select 60-100 antibiotic-responsive transcripts with maximal stringency, a number readily accommodated by the NanoString® assay format. […] As with responsive genes, the fold-change threshold was varied in order to select the top 10-20 control transcripts. […] See Supplemental Methods sections below for further details.
# (§2) After antibiotic treatment as described in the above Materials and Methods section, cells were pelleted, resuspended in 0.5 mL Trizol reagent (ThermoFisher Scientific), transferred to 1.5 mL screw-cap tubes containing 0.25 mL of 0.1 mm diameter Zirconia/Silica beads (BioSpec Products), and lysed mechanically via bead-beating for 3-5 one-minute cycles on a Minibeadbeater-16 (BioSpec) or one 90-second cycle at 10 m/sec on a FastPrep (MP Bio). After addition of 0.1 mL chloroform, each sample tube was mixed thoroughly by inversion, incubated for 3 minutes at room temperature, and centrifuged at 12,000×g for 15 minutes at 4° C. […]
# [2] = test system: A. baumannii clinical isolates; test: Standard broth microdilution MIC; assay type: cell-based, Acinetobacter baumannii
# From the text: (§3) All strains in this study (Table 7) were obtained from clinical or reference microbiological laboratories, including both local hospitals and MDRO strain collections from the Centers for Disease Control's Antibiotic Resistance Isolate Bank (see e.g., World Wide Web at (www).cdc.gov/ARIsolateBank/) and the New York State Department of Health.
# [3] = test system: E. coli clinical isolates; test: RNA-Seq transcriptional response to antibiotic exposure, GO term enrichment; assay type: cell-based, Escherichia coli; details: CLSI breakpoint concentration, 0, 10, 30, 60 minutes
# [4] = test system: E. coli clinical isolates; test: Standard broth microdilution MIC; assay type: cell-based, Escherichia coli
# From the text: as §3
# [5] = test system: A. baumannii clinical isolates; test: RNA-Seq transcriptional response to antibiotic exposure, GO term enrichment; assay type: cell-based, Acinetobacter baumannii; details: CLSI breakpoint concentration, 0, 10, 30, 60 minutes
# From the text: as §1, §2
# [6] = test system: K. pneumoniae clinical isolates; test: Standard broth microdilution MIC; assay type: cell-based, Klebsiella pneumoniae
# From the text: as §3
substance,measurement,setting,value
gentamicin,Gene ontology enrichment of antibiotic-responsive transcripts,[1],induced the unfolded protein response and quinone binding
same,gent MIC,[2]; A. baumannii strain AR0033,32 mg/L
same,gent MIC,[2]; A. baumannii strain AR0035,16 mg/L
same,gent MIC,[2]; A. baumannii strain AR0037,>32 mg/L
same,gent MIC,[2]; A. baumannii strain AR0045,>32 mg/L
same,gent MIC,[2]; A. baumannii strain AR0052,32 mg/L
same,gent MIC,[2]; A. baumannii strain AR0056,>32 mg/L
same,gent MIC,[2]; A. baumannii strain AR0063,4 mg/L
same,gent MIC,[2]; A. baumannii strain AR0070,>32 mg/L
same,gent MIC,[2]; A. baumannii strain AR0078,>32 mg/L
same,gent MIC,[2]; A. baumannii strain AR0101,8 mg/L
same,gent MIC,[2]; A. baumannii strain AR0102,>32 mg/L
same,gent MIC,[2]; A. baumannii strain ATCC 17978,≤0.5 mg/L
same,gent MIC,[2]; A. baumannii strain RB197 (deriv_S),≤0.5 mg/L
same,gent MIC,[2]; A. baumannii strain RB198,32 mg/L
same,gent MIC,[2]; A. baumannii strain RB200 (deriv_R),>32 mg/L
same,gent MIC,[2]; A. baumannii strain RB201,1 mg/L
same,gent MIC,[2]; A. baumannii strain RB202,>32 mg/L
same,gent MIC,[2]; A. baumannii strain RB203,4 mg/L
same,gent MIC,[2]; A. baumannii strain RB204 (deriv_R),>32 mg/L
same,gent MIC,[2]; A. baumannii strain RB205 (deriv_S),2 mg/L
same,gent MIC,[2]; A. baumannii strain RB206,>32 mg/L
same,Gene ontology enrichment of antibiotic-responsive transcripts,[3],induced the unfolded protein response and quinone binding
same,gent MIC,[4]; E. coli strain AR0055,64 mg/L
same,gent MIC,[4]; E. coli strain AR0061,32 mg/L
same,gent MIC,[4]; E. coli strain AR0081,0.5 mg/L
same,gent MIC,[4]; E. coli strain AR0084,0.5 mg/L
same,gent MIC,[4]; E. coli strain AR0085,2 mg/L
same,gent MIC,[4]; E. coli strain BAA2469,64 mg/L
same,gent MIC,[4]; E. coli strain BAC0800005647,1 mg/L
same,gent MIC,[4]; E. coli strain IDR1300027657,64 mg/L
same,gent MIC,[4]; E. coli strain IDR1300034680,1 mg/L
same,gent MIC,[4]; E. coli strain IDR1600047120,64 mg/L
same,gent MIC,[4]; E. coli strain MGH_57,0.5 mg/L
same,gent MIC,[4]; E. coli strain RB001 (deriv_S),1 mg/L
same,gent MIC,[4]; E. coli strain RB051 (deriv_R),256 mg/L
same,gent MIC,[4]; E. coli strain RB057 (deriv_R),256 mg/L
same,gent MIC,[4]; E. coli strain RB075 (deriv_S),0.5 mg/L
same,gent MIC,[4]; E. coli strain RB765,64 mg/L
same,gent MIC,"[4]; E. coli, printed on the continuation line of strain RB075, above RB076, strain unclear",1 mg/L
same,Gene ontology enrichment of antibiotic-responsive transcripts,[5],induced the unfolded protein response and quinone binding
same,gent MIC,[6]; KpGent strain AR0042,32 mg/L
same,gent MIC,[6]; KpGent strain AR0043,1 mg/L
same,gent MIC,[6]; KpGent strain AR0076,32 mg/L
same,gent MIC,[6]; KpGent strain AR0080,2 mg/L
same,gent MIC,[6]; KpGent strain ATCC 700721,>32 mg/L
same,gent MIC,[6]; KpGent strain BAC0800007138,0.5 mg/L
same,gent MIC,[6]; KpGent strain BIDMC_2A,2 mg/L
same,gent MIC,[6]; KpGent strain BIDMC_34,32 mg/L
same,gent MIC,[6]; KpGent strain BIT-10,4 mg/L
same,gent MIC,[6]; KpGent strain BWH_15,4 mg/L
same,gent MIC,[6]; KpGent strain IDR1600031102-01-00,>32 mg/L
same,gent MIC,[6]; KpGent strain IDR1600039511-01-00,0.5 mg/L
same,gent MIC,[6]; KpGent strain MGH_30,1 mg/L
same,gent MIC,[6]; KpGent strain MGH_35,>16 mg/L
same,gent MIC,[6]; KpGent strain MGH_63,>16 mg/L
same,gent MIC,[6]; KpGent strain RB012,32 mg/L
same,gent MIC,[6]; KpGent strain RB040,0.5 mg/L
same,gent MIC,[6]; KpGent strain RB042,2 mg/L
same,gent MIC,[6]; KpGent strain RB121,1 mg/L
same,gent MIC,[6]; KpGent strain RB122,128 mg/L
same,gent MIC,[6]; KpGent strain UCI_7,0.5 mg/L
same,gent MIC,[6]; KpGent strain UCI_13,0.5 mg/L
same,gent MIC,[6]; KpGent strain UCI_37,16 mg/L
same,gent MIC,[6]; KpGent strain UCI_63,4 mg/L
same,gent MIC,[6]; KpGent strain UCI_67,8 mg/L

# Reference: US12442035B2, “Compositions and methods for detecting antibiotic responsive mRNA expression signatures and uses thereof” (THE BROAD INSTITUTE, INC., priority 2018, dated 2025)
